According to patent publication US9376442B2, “Methylpyrrolopyrimidinecarboxamides” (Takeda GmbH, priority 2009, dated 2016):

How the values were obtained:
PDE4B1 = biological target: T1, PDE4B1 (Homo sapiens, UniProt Q07343); test: Inhibition of type 4 phosphodiesterase (PDE4) activity, modified SPA test with recombinant PDE4B1 expressed in SF21 insect cells; format: biochemical; settings: recombinant PDE4B1, 0.5 μM cAMP, read-out: PDE4B1 inhibitory values [measured as −log IC50 (mol/l)] (converted)
T1 construct: made in house; host or cells: SF21 insect cells (baculovirus; pCRBac vector), 1000 x g supernatant of homogenate
Description: Method for Measuring Inhibition of the Type 4 Phosphodiesterase (PDE4) Activity:
The PDE4B1 (GB no. L20966) was a gift of Prof. M. Conti (Stanford University, USA). It was amplified from the original plasmid (pCMV5) via PCR with primers Rb18 (5′-[…]-3′) and Rb10 (5′-[…]-3′) and cloned into the pCRBac vector (Invitrogen, Groningen, NL).
The recombinant baculovirus was prepared by means of homologous recombination in SF9 insect cells. The expression plasmids were cotransfected with Baculo-Gold DNA (Pharmingen, Hamburg) using a standard protocol (Pharmingen, Hamburg). Wt virus-free recombinant virus supernatants were selected using plaque assay methods. After that, high-titre virus supernatants were prepared by amplifying 3 times. PDE4B1 was expressed in SF21 cells by infecting 2×10^6 cells/ml with an MOI (multiplicity of infection) between 1 and 10 in the serum-free medium Insect Express Sf9-S2 (PAA, Pasching, Austria). The cells were cultured at 28° C. for 48-72 hours, after which they were pelleted for 5-10 min at 1000×g and 4° C.
The SF21 insect cells were resuspended, at a concentration of approx. 10^7 cells/ml, in ice-cold (4° C.) homogenization buffer (20 mM Tris, pH 8.2, containing the following additions: 140 mM NaCl, 3.8 mM KCl, 1 mM EGTA, 1 mM MgCl2, 10 mM (3-mercaptoethanol, 2 mM benzamidine, 0.4 mM Pefablock, 10 μM leupeptin, 10 μM pepstatin A, 5 μM trypsin inhibitor) and disrupted by ultrasonication. The homogenate was then centrifuged for 10 min at 1000×g and the supernatant was stored at −80° C. until subsequent use (see below). The protein content was determined by the Bradford method (BioRad, Munich) using BSA as the standard.
PDE4B1 activity was inhibited by the compounds according to the present subject matter in a modified SPA (scintillation proximity assay) test, supplied by Amersham Biosciences (see procedural instructions “phosphodiesterase [3H]cAMP SPA enzyme assay, code TRKQ 7090”), carried out in 96-well microtitre plates (MTP's). The test volume is 100 μl and contains 20 mM Tris buffer (pH 7.4), 0.1 mg/ml of BSA, 5 mM Mg^2+, 0.5 μM cAMP (including about 50,000 cpm of [3H]cAMP), 1 μl of the respective substance dilution in DMSO and sufficient recombinant PDE (1000×g supernatant, see above) to ensure that 10-20% of the cAMP is converted under the said experimental conditions. […] After a preincubation of 5 min at 37° C., the reaction is started by adding the substrate (cAMP) and the assays are incubated for a further 15 min; after that, they are stopped by adding SPA beads (50 μl). In accordance with the manufacturer's instructions, the SPA beads had previously been resuspended in water, but were then diluted 1:3 (v/v) in water; the diluted solution also contains 3 mM IBMX to ensure a complete PDE activity stop. After the beads have been sedimented (>30 min), the MTP's are analyzed in commercially available luminescence detection devices. The corresponding IC50 values of the compounds for the inhibition of PDE4B1 activity are determined from the concentration-effect curves by means of non-linear regression.

PDE5A1 = biological target: T2, PDE5A1 (Homo sapiens, UniProt O76074); test: Inhibition of type 5 phosphodiesterase (PDE5) activity, modified SPA test with human platelet lysate; format: biochemical; settings: 0.5 μM cGMP, read-out: PDE5A1 inhibitory values [measured as −log IC50 (mol/l)] (converted)
T2 construct: from tissue; host or cells: human platelets from fresh donor blood (10,000 x g supernatant of sonicated lysate)
Method in brief: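 Scintillation proximity assay with [3H]cGMP tracer at 0.5 μM total cGMP, stopped after 15 min with beads containing IBMX. PDE3 and PDE2 activities suppressed with motapizone (1 μM) and a PDE2 inhibitor (10 nM). Human platelet supernatant served as the enzyme, with compound preincubated 5 min at 37° C; IC50 values from concentration-effect curves.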

T1 sequence (Q07343 whole entry): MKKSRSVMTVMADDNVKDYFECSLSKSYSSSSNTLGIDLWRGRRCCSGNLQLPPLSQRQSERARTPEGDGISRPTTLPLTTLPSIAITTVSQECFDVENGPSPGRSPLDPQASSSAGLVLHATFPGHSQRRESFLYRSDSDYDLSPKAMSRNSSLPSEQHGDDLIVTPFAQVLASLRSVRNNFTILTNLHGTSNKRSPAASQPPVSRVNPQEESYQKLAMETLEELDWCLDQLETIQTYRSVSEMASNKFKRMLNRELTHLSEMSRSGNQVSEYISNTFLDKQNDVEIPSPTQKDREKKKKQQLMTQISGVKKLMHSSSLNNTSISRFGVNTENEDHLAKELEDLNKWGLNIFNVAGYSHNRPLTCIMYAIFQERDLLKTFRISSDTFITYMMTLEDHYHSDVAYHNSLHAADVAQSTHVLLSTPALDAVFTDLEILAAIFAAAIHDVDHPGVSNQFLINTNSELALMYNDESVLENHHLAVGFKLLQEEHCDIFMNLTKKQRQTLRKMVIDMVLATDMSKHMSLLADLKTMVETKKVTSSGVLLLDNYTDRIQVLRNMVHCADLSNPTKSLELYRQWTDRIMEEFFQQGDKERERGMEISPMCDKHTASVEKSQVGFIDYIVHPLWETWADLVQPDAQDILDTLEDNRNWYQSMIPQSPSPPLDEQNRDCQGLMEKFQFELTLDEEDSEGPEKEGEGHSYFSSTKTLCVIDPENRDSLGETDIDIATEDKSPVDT

Row | IC50 (PDE4B1) | IC50 (PDE5A1) | Compound
1 | < 0.1 µM | < 0.001 µM | CC(=O)N[C@@H]1CC[C@@H](NC(=O)c2c(C)[nH]c3c(-c4cc(C(F)F)ccc4OCC4CC4)ncnc23)[C@H](F)C1 (relative stereo) [Example P159, N-[(1R*,2R*,4R*)-4-(Acetylamino)-2-fluorocyclohexyl]-4-[2-(cyclopropylmethoxy)-5-(difluoromethyl)phenyl]-6-methyl-5H-pyrrolo[3,2-d]pyrimidine-7-carboxamide]
2 | 0.1 to 1 µM | < 0.001 µM | Cc1[nH]c2c(-c3cc(F)ccc3OCC3CC3)ncnc2c1C(=O)NC1CCN(C(=O)[C@H](C)O)CC1 [Example F24, 4-(2-Cyclopropylmethoxy-5-fluoro-phenyl)-6-methyl-5H-pyrrolo[3,2-d]pyrimidine-7-carboxylic acid [1-((S)-2-hydroxy-propionyl)-piperidin-4-yl]-amide]
3 | < 0.1 µM | < 0.001 µM | COCC(=O)N[C@H]1CC[C@H](NC(=O)c2c(C)[nH]c3c(-c4cc(C(F)F)ccc4OCC4CC4)ncnc23)C[C@@H]1F (relative stereo) [Example P211, 4-[2-(Cyclopropylmethoxy)-5-(difluoromethyl)phenyl]-N-{(1S*,3S*,4S*)-3-fluoro-4-[(methoxyacetyl)amino]cyclohexyl}-6-methyl-5H-pyrrolo[3,2-d]pyrimidine-7-carboxamide]
4 | 0.1 to 1 µM | < 0.001 µM | COc1ccc(OCC2CC2)c(-c2ncnc3c(C(=O)NC4CCC(NC(=O)C(C)O)CC4)c(C)[nH]c23)c1 (stereo not drawn) [Example F44, 4-[2-(Cyclopropylmethoxy)-5-methoxyphenyl]-N-(trans-4-{[(25)-2-hydroxypropanoyl]amino}cyclohexyl)-6-methyl-5H-pyrrolo[3,2-d]pyrimidine-7-carboxamide]
5 | < 0.1 µM | < 0.001 µM | Cc1[nH]c2c(-c3cc(C(F)(F)F)ccc3OCC3CC3)ncnc2c1C(=O)NC1CCN(C(=O)CO)CC1 [Example F57, 4-[2-(Cyclopropylmethoxy)-5-(trifluoromethyl)phenyl]-N-[1-(hydroxyacetyl)piperidin-4-yl]-6-methyl-5H-pyrrolo[3,2-d]pyrimidine-7-carboxamide]
6 | < 0.1 µM | < 0.001 µM | COCC(=O)N[C@H]1CC[C@H](NC(=O)c2c(C)[nH]c3c(-c4cc(C(F)F)ccc4OCC4CC4)ncnc23)[C@H](F)C1 (relative stereo) [Example P171, 4-[2-(Cyclopropylmethoxy)-5-(difluoromethyl)phenyl]-N-{(1S*,2R*,4S*)-2-fluoro-4-[(methoxyacetyl)amino]cyclohexyl}-6-methyl-5H-pyrrolo[3,2-d]pyrimidine-7-carboxamide]
7 | < 0.1 µM | < 0.001 µM | CC(=O)N1CCC(NC(=O)c2c(C)[nH]c3c(-c4cc(C(F)F)ccc4OCC4CC4)ncnc23)CC1 [Example P1, N-(1-Acetylpiperidin-4-yl)-4-[2-(cyclopropylmethoxy)-5-(difluoromethyl)phenyl]-6-methyl-5H-pyrrolo[3,2-d]pyrimidine-7-carboxamide]
8 | 0.1 to 1 µM | 0.001 to 0.01 µM | Cc1[nH]c2c(-c3cc(F)ccc3OCC3CC3)ncnc2c1C(=O)NC1CCN(C(=O)CO)CC1 [Example F23, 4-(2-Cyclopropylmethoxy-5-fluoro-phenyl)-6-methyl-5H-pyrrolo[3,2-d]pyrimidine-7-carboxylic acid [1-(2-hydroxy-acetyl)-piperidin-4-yl]-amide]
9 | 0.1 to 1 µM | < 0.001 µM | COc1ccc(OCC2CC2)c(-c2ncnc3c(C(=O)NC4CCN(C(=O)CO)CC4)c(C)[nH]c23)c1 [Example F41, 4-[2-(Cyclopropylmethoxy)-5-methoxyphenyl]-N-(1-glycoloylpiperidin-4-yl)-6-methyl-5H-pyrrolo[3,2-d]pyrimidine-7-carboxamide]

The next lines start with the compound.

Row | Compound | IC50 (PDE4B1) | IC50 (PDE5A1)
10 | CCOC(=O)N1CCC(NC(=O)c2c(C)[nH]c3c(-c4cc(F)ccc4OCC4CC4)ncnc23)CC1 [Example E40, Ethyl 4-[({4-[2-(cyclopropylmethoxy)-5-fluorophenyl]-6-methyl-5H-pyrrolo[3,2-d]pyrimidin-7-yl}carbonyl)amino]piperidine-1-carboxylate] | 0.1 to 1 µM | < 0.001 µM
11 | CCC(=O)N1CCC(NC(=O)c2c(C)[nH]c3c(-c4cc(C(F)(F)F)ccc4OCC4CC4)ncnc23)CC1 [Example E91, 4-[2-(Cyclopropylmethoxy)-5-(trifluoromethyl)phenyl]-6-methyl-N-(1-propanoylpiperidin-4-yl)-5H-pyrrolo[3,2-d]pyrimidine-7-carboxamide] | < 0.1 µM | < 0.001 µM
12 | Cc1ccc(OCC2CC2)c(-c2ncnc3c(C(=O)N[C@@H]4CCC[C@H]4O)c(C)[nH]c23)c1 [Example E178, 4-[2-(Cyclopropylmethoxy)-5-methylphenyl]-N-[(1R,2R)-2-hydroxycyclopentyl]-6-methyl-5H-pyrrolo[3,2-d]pyrimidine-7-carboxamide] | 0.1 to 1 µM | < 0.001 µM
13 | CCC(=O)N[C@H]1CC[C@@H](NC(=O)c2c(C)[nH]c3c(-c4cc(C)ccc4OCC4CC4)ncnc23)CC1 [Example E88, 4-[2-(Cyclopropylmethoxy)-5-methylphenyl]-6-methyl-N-[cis-4-(propanoylamino)cyclohexyl]-5H-pyrrolo[3,2-d]pyrimidine-7-carboxamide] | < 0.1 µM | < 0.001 µM
14 | COCC(=O)N[C@H]1CC[C@@H](NC(=O)c2c(C)[nH]c3c(-c4cc(C)ccc4OCC4CC4)ncnc23)CC1 [Example E89, 4-[2-(Cyclopropylmethoxy)-5-methylphenyl]-N-{cis-4-[(methoxyacetyl)amino]cyclohexyl}-6-methyl-5H-pyrrolo[3,2-d]pyrimidine-7-carboxamide] | < 0.1 µM | < 0.001 µM
15 | CCc1ccc(OCC2CC2)c(-c2ncnc3c(C(=O)N[C@@H]4CN(C(=O)COC)C[C@H]4O)c(C)[nH]c23)c1 (relative stereo) [Example E156, 4-[2-(Cyclopropylmethoxy)-5-ethylphenyl]-N-[(3R*,4R*)-4-hydroxy-1-(methoxyacetyl)pyrrolidin-3-yl]-6-methyl-5H-pyrrolo[3,2-d]pyrimidine-7-carboxamide] | 0.1 to 1 µM | 0.001 to 0.01 µM
16 | CCC(=O)N1CCC(NC(=O)c2c(C)[nH]c3c(-c4cc(CC)ccc4OCC4CC4)ncnc23)CC1 [Example E146, 4-[2-(Cyclopropylmethoxy)-5-ethylphenyl]-6-methyl-N-(1-propanoylpiperidin-4-yl)-5H-pyrrolo[3,2-d]pyrimidine-7-carboxamide] | 0.1 to 1 µM | < 0.001 µM
17 | CCC(=O)N[C@H]1CC[C@@H](NC(=O)c2c(C)[nH]c3c(-c4cc(CC)ccc4OCC4CC4)ncnc23)CC1 [Example E152, 4-[2-(Cyclopropylmethoxy)-5-ethylphenyl]-6-methyl-N-[cis-4-(propanoylamino)cyclohexyl]-5H-pyrrolo[3,2-d]pyrimidine-7-carboxamide] | 0.1 to 1 µM | < 0.001 µM
18 | COCC(=O)N1CCC(NC(=O)c2c(C)[nH]c3c(-c4cc(C)ccc4OCC4CC4)nc(C)nc23)CC1 [Example E171, 4-[2-(Cyclopropylmethoxy)-5-methylphenyl]-N-[1-(methoxyacetyl)piperidin-4-yl]-2,6-dimethyl-5H-pyrrolo[3,2-d]pyrimidine-7-carboxamide] | 0.1 to 1 µM | < 0.001 µM
